# Data published in patent EP4722219A1 (Gan & Lee Pharmaceuticals Co., Ltd., priority 2023, dated 2024).
# Target: T1, AR protein (Homo sapiens, UniProt P10275, T878A)
# T1 construct: host or cells: LNCaP FGC
# T1 sequence (P10275 1-920 T878A): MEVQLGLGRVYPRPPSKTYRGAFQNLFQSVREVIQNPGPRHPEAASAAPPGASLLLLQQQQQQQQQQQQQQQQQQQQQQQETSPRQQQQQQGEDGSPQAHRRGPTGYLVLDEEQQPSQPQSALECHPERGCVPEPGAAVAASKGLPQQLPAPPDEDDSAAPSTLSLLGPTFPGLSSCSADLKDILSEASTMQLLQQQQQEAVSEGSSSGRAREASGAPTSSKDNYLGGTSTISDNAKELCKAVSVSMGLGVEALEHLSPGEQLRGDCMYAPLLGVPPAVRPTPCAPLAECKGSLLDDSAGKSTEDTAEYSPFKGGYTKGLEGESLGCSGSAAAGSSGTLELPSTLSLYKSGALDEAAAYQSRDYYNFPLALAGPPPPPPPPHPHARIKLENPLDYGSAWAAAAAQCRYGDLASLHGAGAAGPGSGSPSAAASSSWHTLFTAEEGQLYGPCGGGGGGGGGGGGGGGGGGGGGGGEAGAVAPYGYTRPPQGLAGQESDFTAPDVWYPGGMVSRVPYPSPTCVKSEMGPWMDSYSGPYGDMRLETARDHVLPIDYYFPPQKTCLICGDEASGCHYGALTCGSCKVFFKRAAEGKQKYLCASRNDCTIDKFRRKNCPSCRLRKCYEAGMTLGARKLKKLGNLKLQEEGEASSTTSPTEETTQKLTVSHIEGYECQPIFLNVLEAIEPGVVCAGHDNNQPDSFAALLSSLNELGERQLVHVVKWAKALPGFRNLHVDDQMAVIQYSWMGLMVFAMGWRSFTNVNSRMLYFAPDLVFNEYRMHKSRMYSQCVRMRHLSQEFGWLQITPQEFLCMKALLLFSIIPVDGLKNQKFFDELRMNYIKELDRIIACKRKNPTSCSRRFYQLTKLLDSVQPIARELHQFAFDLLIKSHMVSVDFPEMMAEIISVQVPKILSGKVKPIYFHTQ
# Test: AR protein degradation in LNCaP cells (Western blot)
# Type: cell-based
# Conditions: 8 hours
# In short: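 AR degradation rate derived from Western blot band densitometry, referenced to GAPDH, using total lysates of LNCaP cells treated 8 h with compound versus solvent control. Detection used infrared dual-color imaging after SDS-PAGE and PVDF transfer.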
Structure (SMILES),percent AR protein degradation at a fixed concentration at 0.01 µM (10 nM) [%],percent AR protein degradation at a fixed concentration at 0.1 µM (100 nM) [%],"Degradation of AR protein in LNCaP cells, 10 nM (%) (10 nM)","Degradation of AR protein in LNCaP cells, 100 nM (%) (100 nM)"
"C[C@H]1CC2(CCN(c3ccc(N4CCC(CN5CCC6(CCc7cc(C(=O)N[C@H]8CCC(=O)NC8=O)c(F)cc7O6)CC5)CC4)cc3)CC2)CN1c1ccc(C#N)c(Cl)c1 [A-P-42, 1'-((1-(4-((S)-2-(3-chloro-4-cyanophenyl)-3-methyl-2,8-diazaspiro[4.5]decan-8-yl)phenyl)piperidin-4-yl)methyl)-N-((S)-2,6-dioxopiperidin-3-yl)-7-fluorospiro[chroman-2,4'-piperidin]-6-carboxamide]",44,77,–,–
"COc1cc(O[C@H]2C(C)(C)[C@H](NC(=O)c3ccc(N4CCC(C)(CN5CCC6(CCc7cc(C(=O)N[C@H]8CCC(=O)NC8=O)c(F)cc7O6)CC5)CC4)cc3)C2(C)C)ccc1C#N [A-P-31, 1'-((1-((4-((1r,3r)-3-(4-cyano-3-methoxyphenoxy)-2,2,4,4-tetramethylcyclobutyl)carbamoyl)phenyl)-4-methylpiperidin-4-yl)methyl)-N-((S)-2,6-dioxopiperidin-3-yl)-7-fluorospiro[2,4'-piperidin]-6-carboxamide]",47,71,–,–
"C[C@H]1CC2(CCN(c3ccc(N4CCC(CN5CCC6(CC5)COc5ccc7c(c56)n(C)c(=O)n7C5CCC(=O)NC5=O)CC4)cc3)CC2)CN1c1ccc(C#N)c(Cl)c1 (some centres unmarked) [A-P-26, 2-chloro-4-((3 S)-8-(4-(4-((3-((2,6-dioxopiperidin-3-yl))-1-methyl-2-oxo-2,3-dihydro-1H,7H-spiro[benzofuro[4,5-d]imidazole-8,4'-piperidin]-1'-yl)methyl)piperidin-1-yl)phenyl)-3-methyl-2,8-diazaspiro[4.5]decan-2-yl)benzonitrile]",48,65,–,–
"COc1cc(O[C@H]2C(C)(C)[C@H](NC(=O)c3ccc(N4CCC(CN5CCC6(CC5)COc5c6ccc(C(=O)N[C@H]6CCC(=O)NC6=O)c5F)(OC)CC4)cc3)C2(C)C)ccc1C#N [A-P-86, 1'-((1-(4-(((1r,3r)-3-(4-cyano-3-methoxyphenoxy)-2,2,4,4-tetramethylcyclobutyl)carbamoyl)phenyl)-4-methoxypiperidin-4-yl)methyl)-N-((S)-2,6-dioxopiperidin-3-yl)-7-fluoro-2H-spiro[benzofuran-3,4'-piperidin]-6-carboxamide]",–,–,37,39
